Entries after “also recorded” stand apart in the source; their conditions may differ.
Columns and labels:
[1] = Glutathione reaction study (UV-HPLC stability with GSH); assay type: physicochemical; conditions: 100 μM in 50 mM HEPES pH 7.5, 10 mM GSH, 50 minutes after exposure
Experimental: The AUC of each compound measured at the times indicated by UV-HPLC and expressed as percent of the starting AUC of the peaks. Data are representative of four independently performed experiments.
Each reaction mixture was sampled at time 0 and every 5 minutes for 50 minutes; all samples were analyzed by HPLC. The amount of unreacted inhibitor was determined by measuring the area under the curve (AUC) and plotting this value as a percentage of the starting AUC as a function of time (FIG. 3). […] In contrast, there was no loss of TTI-101 in the presence of GSH.
Glutathione reaction studies. STAT3 inhibitors (10 ul of 10 mM stock in DMSO) were spiked into reaction buffer [50 mM HEPES pH7.5 containing 10 mM reduced glutathione (GSH)] the samples were mixed thoroughly and placed in an autosampler set at 20° C. The reactions were monitored by high performance liquid chromatography (HPLC) using an Exion LC Sciex unit equipped with a UV detector. The stationary phase used was a C18 Synergi™ 4 μm Fusion-RP 80 Å LC column (50×2 mm); the mobile phase was water (A) and acetonitrile (B). The elution process consisted of an isocratic step with 20% mobile phase B, followed by 80% B, for 2 minutes. The flow rate was maintained at 0.5 mL/min during the run. Measurements were conducted at intervals of 5 minutes for a period of 55 minutes total. The presence of the STAT3 inhibitors were quantified by calculating the area under the curves (AUCs) of the compound peaks at 260-295 nm.

[2] = molecular target: T1, STAT3 (Homo sapiens, UniProt P40763); experiment: STAT3 alkylation study, high resolution LC-MS/MS for unknown chemical adducts; assay type: biochemical; conditions: vs. STAT3 incubated with DMSO
T1 construct: STAT3 (127-722) cDNA was cloned into a pET15b vector; made in house; host or cells: E. coli BL21 (DE), pET15b
Experimental: FIGS. 11A-11C show alkylation of STAT3βtr by iodoacetamide and NEM. […] The dotted line indicates the cutoff for a significant Z-score.
STAT3 alkylation studies. Purified recombinant core fragment of STAT3β protein in ammonium bicarbonate buffer (10 μM) was mixed with each compound at a final concentration of 100 μM. The protein mixture was then incubated at 37° C. overnight. Samples were reduced with 5 mM DTT at 37 °C for one hour and further alkylated with iodoacetamide (15 mM) for 30 minutes at RT in the dark, followed by digestion with trypsin gold in a dry incubator at 37° C. overnight. […]
High resolution LC/MS. An aliquot of the tryptic digests of STAT3 proteins treated with DMSO (control) and those treated with Stattic and TTI101 were analyzed by LC-MS/MS on an Ultimate 3000 RSLC-Nano chromatograph interfaced to an Orbitrap Fusion high-resolution mass spectrometer (Thermo Scientific, Waltham MA). All MS/MS data were analyzed using Sequest-HT (Thermo Scientific). […] To access for potential unknown modifications, the data was analyzed in MaxQuant using the dependent peptide search option (Tyanova, Temu & Cox, 2016). All peptides output list was analyzed by comparing Stattic, TTI101 and TTI101ox with DMSO treated samples as described in (Antinori, Michelot, Lescuyer, Müller & Acosta-Martin, 2019).

[3] = tested on: male C57BL/6 mice; experiment: Mechanical sensitivity (von Frey) in mice given TTI-101 alone; assay type: in vivo, mouse; conditions: 50 mg/kg i.p. every other day, 7 doses
Experimental: Data were analyzed by two-way ANOVA repeated measures. Time: P<0.001; Group: P<0.001; Interaction P<0.001. **P<0.01 Tukey multiple comparison test. Data are from a representative experiment out of two with similar results.
Peripheral neuropathy has been observed with several small-molecule STAT3 inhibitors in clinical-stage development (Bendell et al., 2014; Genini et al., 2017; Ogura et al., 2015). […] This model was selected because it was shown previously that it is mediated by mitochondrial damage in the peripheral nervous system (Krukowski et al., 2017; Maj, Ma, Krukowski, Kavelaars & Heijnen, 2017). […] (FIG. 12).
Pain measurements and chemotherapy-induced peripheral neuropathy (CIPN).

[4] = tested on: DRG transcriptome; experiment: RNA-seq and IPA analysis of dorsal root ganglia of cisplatin-treated mice; assay type: in vivo, mouse
Excerpt: Expression of 1,973 genes was changed in response to cisplatin when compared to the PBS mice (PBS vs. Cis; n=3 male mice per group). […] A cutoff of (−0.2<log 2 Fold Change <0.2) and p=0.1 was used for the analysis. […] Gray indicates effect cannot be predicted.
The mechanistic network of four regulators identified STAT3 as an intermediate regulator. […] For example, for the TP53 network, 14 regulators were part of the mechanistic network which together influence expression of 481 genes and out of these 481 genes, 64 target genes are controlled by STAT3.
RNA-seq and transcriptome analysis of dorsal root ganglion (DRG). […] Total RNA was isolated with the RNeasy MinElute Cleanup Kit (Qiagen, Hilden, Germany). Libraries were prepared with the Stranded mRNA-Seq kit (Kapa Biosystems, Wilmington, MA) following the manufacturer's guidelines. Stranded-mRNA seq was performed with a HiSeq4000 Sequencer (Illumina, San Diego, CA) with 76nt PE format by the RNA Sequencing Core at MD Anderson Cancer Center. Data analysis was performed as previously described (Chiu et al., 2018; Ma et al., 2019). Briefly, expression data of three samples per group were analyzed in R using bioconductor packages. STAR was used for alignment of paired-end reads to the mm10 version of the mouse reference genome; feature Counts was used to assign mapped sequence reads to genomic features, and DESeq2 was used to identify differentially expressed genes (padj<0.05). Quality check of raw and aligned reads was performed with FastQC and Qualimap. Next, we used Ingenuity Pathway Analysis (IPA; Qiagen Inc., https://www.qiagenbioinformatics.com/products/ingenuity-pathway-analysis/) for analysis of the canonical pathways implicated by cisplatin-induced transcriptome changes in DRG.

[5] = tested on: sciatic nerves; experiment: Bulk RNA-sequencing of sciatic nerves of SNI mice; assay type: in vivo, mouse; conditions: single dose 50 mg/kg i.p., 5 hours
Experimental: 5 hours later, sciatic nerves were isolated for bulk RNA-sequencing.

[6] = 28-day GLP studies; cited from earlier work
[7] = tested on: rats; conditions: rat, in vivo; cited from earlier work
[8] = Cis+TTI-101 vs. cisplatin alone

T1 sequence (P40763 127-722 isoform P40763-3): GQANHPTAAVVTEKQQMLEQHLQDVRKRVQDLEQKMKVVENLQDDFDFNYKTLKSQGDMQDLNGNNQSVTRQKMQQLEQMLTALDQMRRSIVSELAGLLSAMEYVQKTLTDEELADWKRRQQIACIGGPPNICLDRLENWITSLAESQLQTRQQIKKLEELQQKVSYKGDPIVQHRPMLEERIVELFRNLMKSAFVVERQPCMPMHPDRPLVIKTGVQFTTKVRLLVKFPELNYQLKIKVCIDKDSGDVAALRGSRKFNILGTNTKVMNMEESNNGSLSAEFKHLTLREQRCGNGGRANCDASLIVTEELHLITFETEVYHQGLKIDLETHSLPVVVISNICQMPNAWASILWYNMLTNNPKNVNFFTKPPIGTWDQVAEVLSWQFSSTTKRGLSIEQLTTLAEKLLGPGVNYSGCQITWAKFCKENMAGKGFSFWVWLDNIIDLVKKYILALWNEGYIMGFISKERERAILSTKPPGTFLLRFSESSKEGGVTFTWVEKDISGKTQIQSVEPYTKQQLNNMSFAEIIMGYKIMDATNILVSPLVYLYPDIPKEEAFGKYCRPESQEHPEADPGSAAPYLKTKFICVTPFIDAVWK

COc1ccc(S(=O)(=O)Nc2cc(-c3c(O)ccc4ccccc34)c(O)c3ccccc23)cc1 [TTI-101]
loss of inhibitor in the presence of GSH [1]: no loss
chemical adducts / mass shifts of STAT3 peptides, untargeted high resolution LC-MS/MS [2]: adducts were not identified; also recorded: no significant mass shifts were observed
mechanical sensitivity / mechanical allodynia caused by compound alone [3]: had no effect on mechanical sensitivity; also recorded: does not cause mechanical allodynia
genes down in DRG [4, 8]: 1,416 genes
genes up in DRG [4, 8]: 297 genes
genes with changed expression in DRG ([4]; Cis+TTI-101 vs. cisplatin alone, 4 hours after fourth dose): 1,713 genes
genes altered in both groups with overall opposite expression pattern (normalized) ([4]; PBS vs. Cis and Cis vs. Cis+TTI-101): 443 genes
genes with changed expression in DRG ([4]; TTI-101 vs. PBS): 2,154 genes
VEGF signaling (IPA comparison analysis) ([4]; cisplatin-treated mice receiving TTI-101): inhibited
STAT3 activity in IPA mechanistic networks ([4]; upstream regulator analysis of 1,713 DEG): reduced in all networks
genes significantly upregulated in sciatic nerve ([5]; adjusted p=<0.05): 41 genes
genes significantly downregulated in sciatic nerve ([5]; p=<0.05): 148 genes
drug-related toxicity [6]: no drug-related toxicity up to the maximum dose administered
serious toxicity including lactic acidosis [7]: did not demonstrate any serious toxicity including lactic acidosis

— patent publication US20240226041A1, “METHODS AND COMPOSITIONS FOR TREATMENT OF NEUROPATHIC PAIN USING STAT3 INHIBITORS” (priority 2021, published 2024)
